Laboratory results: patent publication US4483869A, “Thiocarnitines, process for their preparation and pharmaceutical compositions containing same” (Sigma-Tau Industrie Farmaceutiche Riunite S.p.A., priority 1980, dated 1984)
Where a name gives a salt, the structure may show the parent alone.

Key:
[1] = Acute toxicity in the mouse, Weil's method; conditions: in vivo, ip
From the text: The acute toxicity of the compounds of general formula (I) has been studied in the mouse with the Weil method (Weil C. S., Biometr. J. 8, 249, 1952).
The LD50 values of some compounds illustrated in Table I, indicate that the compounds are remarkably well tolerated.
LD50, mg Kg^-1, ep in mouse of some thiocarnitines of general
formula (I). Weil's method (N = 5, K = 4) Cl = hydrochloride

[2] = system: rats; experiment: Protection against X-ray exposure in rats (survival after irradiation); format: in vivo, Albino Wister rats; conditions: 20-25 mg Kg^-1 1 hour before irradiation; for Percentage of surviving animals, day 10: 10 days from irradiation, control 90; for Percentage of surviving animals, day 20: 20 days from irradiation, control 20; for Percentage of surviving animals, day 30: 30 days from irradiation, control 10
Description: The effect of the compounds of formula (I) towards the damages provoked by X-ray exposure was studied.
The experiment animals, Albino Wister rats, treated with the compounds under examination (20-25 mg Kg^-1 1 hour before irradiation) were irradiated and checked over a time period to detect the onset of toxic effects and the time of survival with respect to the control group. […]
Protective effect of some thiocarnitines of general
formula (I) towards the damage provoked by irradiation
in rats. Percentage of surviving animals at
various days from irradiation.

[3] = system: rabbit; experiment: Cutaneous regeneration from burns in the rabbit; format: in vivo; conditions: 20 mg Kg^-1 orally once a day for seven days; for Percentage of regenerated tissue, 4th day: control 20; for Percentage of regenerated tissue, 8th day: control 50
Description: The ability of the compounds of formula (I) to speed up the cutaneous regeneration from burns has been tested in the rabbit.
A 4 cm^2 cutaneous area of the average-top zone of the test animal back was burned.
The compounds were orally administered in aqueous solution at the dose of 20 mg Kg^-1 once a day for seven days. The area of cutaneous regeneration i.e. the area of the newly formed tissue, was then measured (Table III).
Effect of compounds of formula (I) on cutaneous
regeneration. Percentage of regenerated tissue at the 4th
and 8th day from treatment.

[4] = system: acetylcholine; experiment: Formation of acetylcholine
[5] = Crossing of the blood-brain barrier
[6] = system: CoA; experiment: Transfer of the acetyl group to CoA / acyl group donor; format: biochemical
[7] = Hygroscopicity and stability to the atmosphere of the isolated product; format: physicochemical; conditions: for hygroscopicity: isolated product
[8] = "ep" route, Weil's method (N = 5, K = 4)

Row | SMILES | LD50 [1, 8] [mg/kg] | Percentage of surviving animals, day 10 [2] [Percentage] | Percentage of surviving animals, day 20 [2] [Percentage] | Percentage of surviving animals, day 30 [2] [Percentage] | Percentage of regenerated tissue, 4th day [3] [Percentage] | Percentage of regenerated tissue, 8th day [3] [Percentage] | formation of acetylcholine [4] | ability to cross the blood-brain barrier [5] | acyl group donor activity [6] | transfer of the acetyl group to CoA ([6]; in the absence of CoA carnitine acetyl transferase) | LD50 [1] [mg/kg] | hygroscopicity [7] | stability upon exposure to the atmosphere ([7]; exposure to the atmosphere)
1 | CC(=O)SC(CC(=O)O)C[N+](C)(C)C (centres unmarked) [S--acetyl thiocarnitine Cl, S-acetyl thiocarnitine hydrochloride] | 294 | 100 | 70 | 60 | 50 | 90 | promotes the formation of acetylcholine | able to cross the blood-brain barrier | potent acyl group donor | able to transfer the acetyl group to CoA directly even in the absence of the enzyme | – | – | –
2 | CCCC(=O)SC(CC(=O)O)C[N+](C)(C)C (centres unmarked) [S--butyryl thiocarnitine Cl, S-butyryl thiocarnitine halogenide] | – | 90 | 40 | 40 | 20 | 40 | – | – | – | – | 350 | – | –
3 | CCC(CC)C(=O)SC(CC(=O)O)C[N+](C)(C)C (centres unmarked) [S--diethylacetyl thiocarnitine Cl, S-diethylacetyl thiocarnitine] | 295 | 80 | 60 | 30 | 50 | 60 | – | – | – | – | – | highly hygroscopic | –
4 | CCCC(CCC)C(=O)SC(CC(=O)O)C[N+](C)(C)C (centres unmarked) [S--dipropylacetyl thiocarnitine Cl, S-dipropylacetil thiocarnitine hydrochloride] | – | 90 | 70 | 50 | 50 | 100 | – | – | – | – | 350 | – | –
5 | CC(O)CC(=O)SC(CC(=O)O)C[N+](C)(C)C (stereo not drawn) [S--hydroxybutyryl thiocarnitine Cl, S-beta hydroxybutyryl thiocarnitine] | 300 | 100 | 80 | 60 | 30 | 60 | – | – | – | – | – | very hygroscopic | –
6 | CCC(=O)SC(CC(=O)O)C[N+](C)(C)C (centres unmarked) [S--propionyl thiocarnitine Cl, S-propionyl thiocarnitine halogenide] | – | 90 | 70 | 50 | 30 | 70 | – | – | – | – | 302 | – | –
7 | C[N+](C)(C)CC(S)CC(=O)O (centres unmarked) [Thiocarnitine, thiocarnitine hydrochloride] | 150 | 95 | 60 | 50 | 40 | 90 | – | – | – | – | – | very hygroscopic | darkened upon exposure to the atmosphere
